Laboratory results reported in the RepoRT retention time repository.

assay: Waters ACQUITY UPLC BEH C18, 100 × 2.1 mm, 1.7 µm, 40 °C, 0.3 to 0.4 mL/min, estimated dead time 0.63 min; A: water + 0.1% formic acid; B: methanol + 0.1% formic acid; gradient (min/%B) 0/0.5 0.1/0.5 10/80 10.1/99.5 12/99.5; settings: stereoisomer not certain

Point of comparison: `CC(C)C(NC(=O)Cc1c[nH]c2ccccc12)C(=O)O` (stereo unspecified), LC retention time 5.61 min. Against it:
- CC(CCC1(O)OC2CC3C4CC=C5CC(OC6OC(CO)C(O)C(OC7OC(CO)C(O)C(O)C7O)C6OC6OC(C)C(O)C(O)C6O)CCC5(C)C4CCC3(C)C2C1C)COC1OC(CO)C(O)C(O)C1O (stereo unspecified) — within 1.5-fold, 4.99 min
- CC(=O)Oc1ccc(C=Cc2cc(OC(C)=O)cc(OC(C)=O)c2)cc1 — 1.5-fold higher, 8.46 min
- COc1cc(-c2cc(=O)c3c(O)cc(OC4OC(C(=O)O)C(O)C(O)C4OC4OC(COC(=O)C=Cc5ccc(O)cc5)C(O)C(O)C4O)cc3o2)cc(OC)c1O (stereo unspecified) — within 1.5-fold, 4.9 min
- COc1cc(O)c(CC=C(C)C)c(O)c1C(=O)C=Cc1ccc(O)cc1 — 1.6-fold higher, 9.06 min
- CC1=C(C)C(=O)OC(C(C)C2(O)CCC3C4C5OC5C5(O)CC=CC(=O)C5(C)C4CCC32C)C1 (stereo unspecified) — within 1.5-fold, 6.82 min
- COCC12CN(C)C3C4C(OC)C1C3(C(OC)CC2O)C1CC2(O)C(OC)C(O)C4(OC(C)=O)C1C2OC(=O)c1ccccc1 (stereo unspecified) — the same, 5.61 min
- COc1ccc2c(c[n+](C)c3c4cc5c(cc4ccc23)OCO5)c1OC — within 1.5-fold, 5.3 min
- COc1cc(-c2cc(=O)c3c(O)cc(OC4OC(COC(=O)CC(=O)O)C(O)C(O)C4O)cc3o2)ccc1O (stereo unspecified) — within 1.5-fold, 4.8 min
- O=C(O)C(Cc1ccc(O)cc1)NCC1(O)OC(CO)C(O)C1O (stereo unspecified) — 3.1-fold lower, 1.82 min
- CC(=O)OCC1OC(OC2C(O)COC(OC3C(O)C(C)(C)CC4C5=CCC6C7(C)CCC(OC8OC(C(=O)O)C(O)C(O)C8OC8OC(CO)C(O)C(O)C8OC8OC(CO)C(O)C(O)C8O)C(C)(CO)C7CCC6(C)C5(C)CCC43C)C2O)C(OC(C)=O)C(OC(C)=O)C1OC(C)=O (stereo unspecified) — within 1.5-fold, 6.26 min
- CC1CCC2(OC1O)OC1CC3C4CC=C5CC(OC6OC(CO)C(OC7OC(C)C(O)C(O)C7O)C(O)C6OC6OC(C)C(O)C(O)C6O)CCC5(C)C4CCC3(C)C1C2C (stereo unspecified) — within 1.5-fold, 5.71 min
- CCCCC(=O)OC1C(CO)OC(OC2(CO)OC(CO)C(OC(C)=O)C2O)C(OC(=O)CCCC)C1OC(=O)CCCC (stereo unspecified) — 1.5-fold higher, 8.56 min
- COc1cc(C=CC(=O)OCC2OC(OC3C(c4c(O)cc5oc(-c6ccc(O)c(OC)c6)cc(=O)c5c4O)OC(CO)C(O)C3O)C(O)C(O)C2O)ccc1O (stereo unspecified) — within 1.5-fold, 4.19 min
- C=C1CC23CC4C5C6(C)CC(O)CC57C(C2C(O)C1C(O)C37)N4C6 (stereo unspecified) — 1.8-fold lower, 3.07 min
- O=C(O)C=Cc1ccc(O)cc1 — 2.1-fold lower, 2.71 min
- C=CC1C(OC2OC(CO)C(O)C(O)C2O)OC=C2C(=O)OCCC21O (stereo unspecified) — 1.8-fold lower, 3.2 min
- COc1c(OC2OC(CO)C(O)C(O)C2O)cc2oc(-c3ccc(O)c(O)c3)c(O)c(=O)c2c1O (stereo unspecified) — within 1.5-fold, 4.58 min
- O=c1cc2oc(-c3ccc([O-])c(O)c3)c(OC3OC(CO)C(O)C(O)C3OC3OCC(O)C(O)C3O)cc-2c(O)c1 (stereo unspecified) — 1.9-fold lower, 2.88 min
- CC1OC(OC2C(CO)OC(OC3CCC4(C)C(=CC(O)C5C4CCC4(C)C5CC5OC6(CCC(C)(COC7OC(CO)C(O)C(O)C7O)O6)C(C)C54)C3)C(OC3OC(C)C(O)C(O)C3O)C2O)C(O)C(O)C1O (stereo unspecified) — within 1.5-fold, 4.5 min
- O=c1c(-c2ccc(O)c(O)c2)coc2cc(O)ccc12 — within 1.5-fold, 4.63 min
- Nc1[nH]c(=O)[nH]c(=O)c1OC1OC(CO)C(O)C(O)C1O (stereo unspecified) — 2.8-fold lower, 2.01 min
- COc1ccc(C=CC(=O)c2c(O)cc(OC3OC(CO)C(O)C(O)C3OC3OC(C)C(O)C(O)C3O)cc2O)cc1 (stereo unspecified) — within 1.5-fold, 5.42 min
- O=c1cc(-c2ccc(O)cc2)oc2cc(O)c(C3OCC(O)C(O)C3OC3OC(CO)C(O)C(O)C3O)c(O)c12 (stereo unspecified) — within 1.5-fold, 4.21 min
- NCCc1c[nH]c2ccccc12 — 3.1-fold lower, 1.79 min
- COc1c(O)cc(O)c2c(=O)cc(-c3ccccc3)oc12 — within 1.5-fold, 7.27 min
- CC(CCC1(O)OC2CC3C4CC=C5CC(O)CC(OC6OCC(O)C(OC7OCC(O)C(O)C7O)C6OC6OC(C)C(O)C(O)C6O)C5(C)C4CCC3(C)C2C1C)COC1OC(CO)C(O)C(O)C1O (stereo unspecified) — within 1.5-fold, 4.15 min
- COc1cc(-c2[o+]c3cc(O)cc(OC4OC(CO)C(O)C(O)C4O)c3cc2OC2OC(CO)C(O)C(O)C2O)ccc1O (stereo unspecified) — 2-fold lower, 2.79 min
- CC(C)C(N)C(=O)NC(Cc1ccccc1)C(=O)O (stereo unspecified) — 1.7-fold lower, 3.23 min
- COc1cc(C=CC=O)cc(OC)c1O — within 1.5-fold, 4.73 min
- O=C(O)CCC(NCC1(O)OCC(O)C(O)C1O)C(=O)NC(Cc1ccccc1)C(=O)O (stereo unspecified) — 1.8-fold lower, 3.16 min
- COc1cc2ccc(=O)oc2cc1O — within 1.5-fold, 4.24 min
- COC(=O)C1=C2Nc3ccccc3C23CCN2CCC1C(C(C)OC)C23 (stereo unspecified) — within 1.5-fold, 4.55 min
- CCCC(=O)OC(CC(=O)[O-])C[N+](C)(C)C (stereo unspecified) — 2.6-fold lower, 2.18 min
- O=c1[nH]c(=O)c2[nH]cnc2[nH]1 — 3.2-fold lower, 1.75 min
- NC(CCC(=O)NCC(=O)O)C(=O)O (stereo unspecified) — 3.4-fold lower, 1.67 min
- CC(C)C(O)(C(=O)OCC1CC[N+]2([O-])CCCC12)C(C)O (stereo unspecified) — 1.8-fold lower, 3.11 min
- NC(Cc1c[nH]c2ccccc12)C(=O)O (stereo unspecified) — 2-fold lower, 2.8 min
- COc1ccc(C(C)=O)c(O)c1 — within 1.5-fold, 6.57 min
- CC1OC(OC2C(CO)OC(OCC3OC(OC(=O)C45CCC(C)(C)CC4C4=CCC6C7(C)CCC(OC8OCC(O)C(O)C8OC8OC(C)C(O)C(O)C8O)C(C)(CO)C7CCC6(C)C4(C)CC5)C(O)C(O)C3O)C(O)C2O)C(O)C(O)C1O (stereo unspecified) — within 1.5-fold, 5.38 min
- C=CC1C(OC2OC(CO)C(O)C(O)C2O)OC=C2C(=O)N3CCC(=O)c4ccccc4NC(=O)C3CC21 (stereo unspecified) — within 1.5-fold, 3.77 min
- O=C1C(=Cc2ccc(O)c(O)c2)Oc2c1ccc(OC1OC(CO)C(O)C(O)C1O)c2O (stereo unspecified) — within 1.5-fold, 4 min
- CCCCCC=CCC=CCCCCCCCC(=O)OCC(O)COP(=O)(O)OCCN (stereo unspecified) — 1.6-fold higher, 9.24 min
- NCCc1ccc(O)cc1 — 3.1-fold lower, 1.83 min
- CC1OC(OCC2OC(Oc3cc4c(O)cc(O)cc4[o+]c3-c3ccc(O)c(O)c3)C(O)C(O)C2O)C(O)C(O)C1O (stereo unspecified) — 1.9-fold lower, 2.94 min
- CC1CCC2(C(=O)OC3OC(COC4OC(CO)C(OC5OC(C)C(O)C(O)C5O)C(O)C4O)C(O)C(O)C3O)CCC3(C)C(=CCC4C5(C)CC(O)C(O)C(C)(CO)C5CCC43C)C2C1C (stereo unspecified) — within 1.5-fold, 5.21 min
- COc1cc(-c2cc(=O)c3c(O)cc(OC4OC(CO)C(O)C(O)C4O)cc3o2)cc(OC)c1O (stereo unspecified) — within 1.5-fold, 4.57 min
- C=CCNC(=O)C=Cc1ccc(O)c(OC)c1 — 2-fold lower, 2.86 min
- CC1OC(OC2C(OC3CCC4(C)C(CCC5(C)C4CC=C4C6CC(C)(C)CCC6(C(=O)O)CCC45C)C3(C)CO)OCC(O)C2O)C(O)C(O)C1O (stereo unspecified) — within 1.5-fold, 7.96 min
- CC(=O)NC(CC(C)C)C(=O)O (stereo unspecified) — within 1.5-fold, 3.81 min
- C=C1C2CC3(C1O)C1CC4C5(C)CCC(O)C4(C1N(CC)C5)C3CC2O (stereo unspecified) — 1.8-fold lower, 3.05 min
- OC1CCN2Cc3ccccc3N=C12 (stereo unspecified) — 2.2-fold lower, 2.55 min
- O=c1c(OC2OC(CO)C(O)C(O)C2O)c(-c2ccc(O)c(O)c2)oc2cc(O)cc(O)c12 (stereo unspecified) — within 1.5-fold, 4.03 min
- CC(CCC1(O)OC2CC3C4CC=C5CC(OC6OC(CO)C(OC7OC(C)C(O)C(O)C7O)C(O)C6OC6OC(C)C(O)C(O)C6O)CCC5(C)C4CCC3(C)C2C1C)COC1OC(CO)C(O)C(O)C1O (stereo unspecified) — within 1.5-fold, 5.05 min
- CC(=O)OC1C(C)OC(OC2C(c3c(O)cc(O)c4c(=O)cc(-c5ccc(O)cc5)oc34)OC(CO)C(O)C2O)C(O)C1O (stereo unspecified) — within 1.5-fold, 5.08 min
- CCN1CC2(COC)C(O)CC(OC)C34C5CC6(O)C(OC)C(O)C(OC(C)=O)(C5C6OC(=O)c5ccccc5)C(C(OC)C23)C14 (stereo unspecified) — within 1.5-fold, 5.97 min
